# Measurements taken from article PMC6812009, “Covalent Aurora A regulation by the metabolic integrator coenzyme A” (Redox Biology, 2019).
# Tests used:
# Assay in all cases: Kinase profiling screen (radioactive filter-binding assay)
# Format in all cases: biochemical
# CLK2 = CLK2 (Homo sapiens, UniProt P49760); details: 100 μM compound, 5 μM ATP; read-out: Kinase activity, % of activity in the absence of inhibitor
# Procedure: (§1) Profiling of 117 protein kinases with CoA, dpCoA and ADP was carried out at the International Centre for Protein Kinase Profiling at the University of Dundee. Each compound was tested in vitro, in duplicate, at 100 μM final concentration using recombinant kinases, model substrates and optimal concentrations of ATP. Bacterially expressed full-length His-Aurora A was used to determine the IC50 value for CoA (in the presence or absence of DTT), dpCoA, ADP and desulfo-CoA. The assay was performed in the presence of 5 μM competing ATP. To examine whether the inhibitory effect of CoA on Aurora A is modulated by TPX2, IC50 values for CoA were also generated in the presence and absence of 1 μg TPX2 (residues 1–43) fragment.
# MEKK1 = MEKK1 (Homo sapiens, UniProt Q13233); details: 100 μM compound, 20 μM ATP; read-out: Kinase activity, % of activity in the absence of inhibitor
# Chain of MEKK1 (Q13233 whole entry): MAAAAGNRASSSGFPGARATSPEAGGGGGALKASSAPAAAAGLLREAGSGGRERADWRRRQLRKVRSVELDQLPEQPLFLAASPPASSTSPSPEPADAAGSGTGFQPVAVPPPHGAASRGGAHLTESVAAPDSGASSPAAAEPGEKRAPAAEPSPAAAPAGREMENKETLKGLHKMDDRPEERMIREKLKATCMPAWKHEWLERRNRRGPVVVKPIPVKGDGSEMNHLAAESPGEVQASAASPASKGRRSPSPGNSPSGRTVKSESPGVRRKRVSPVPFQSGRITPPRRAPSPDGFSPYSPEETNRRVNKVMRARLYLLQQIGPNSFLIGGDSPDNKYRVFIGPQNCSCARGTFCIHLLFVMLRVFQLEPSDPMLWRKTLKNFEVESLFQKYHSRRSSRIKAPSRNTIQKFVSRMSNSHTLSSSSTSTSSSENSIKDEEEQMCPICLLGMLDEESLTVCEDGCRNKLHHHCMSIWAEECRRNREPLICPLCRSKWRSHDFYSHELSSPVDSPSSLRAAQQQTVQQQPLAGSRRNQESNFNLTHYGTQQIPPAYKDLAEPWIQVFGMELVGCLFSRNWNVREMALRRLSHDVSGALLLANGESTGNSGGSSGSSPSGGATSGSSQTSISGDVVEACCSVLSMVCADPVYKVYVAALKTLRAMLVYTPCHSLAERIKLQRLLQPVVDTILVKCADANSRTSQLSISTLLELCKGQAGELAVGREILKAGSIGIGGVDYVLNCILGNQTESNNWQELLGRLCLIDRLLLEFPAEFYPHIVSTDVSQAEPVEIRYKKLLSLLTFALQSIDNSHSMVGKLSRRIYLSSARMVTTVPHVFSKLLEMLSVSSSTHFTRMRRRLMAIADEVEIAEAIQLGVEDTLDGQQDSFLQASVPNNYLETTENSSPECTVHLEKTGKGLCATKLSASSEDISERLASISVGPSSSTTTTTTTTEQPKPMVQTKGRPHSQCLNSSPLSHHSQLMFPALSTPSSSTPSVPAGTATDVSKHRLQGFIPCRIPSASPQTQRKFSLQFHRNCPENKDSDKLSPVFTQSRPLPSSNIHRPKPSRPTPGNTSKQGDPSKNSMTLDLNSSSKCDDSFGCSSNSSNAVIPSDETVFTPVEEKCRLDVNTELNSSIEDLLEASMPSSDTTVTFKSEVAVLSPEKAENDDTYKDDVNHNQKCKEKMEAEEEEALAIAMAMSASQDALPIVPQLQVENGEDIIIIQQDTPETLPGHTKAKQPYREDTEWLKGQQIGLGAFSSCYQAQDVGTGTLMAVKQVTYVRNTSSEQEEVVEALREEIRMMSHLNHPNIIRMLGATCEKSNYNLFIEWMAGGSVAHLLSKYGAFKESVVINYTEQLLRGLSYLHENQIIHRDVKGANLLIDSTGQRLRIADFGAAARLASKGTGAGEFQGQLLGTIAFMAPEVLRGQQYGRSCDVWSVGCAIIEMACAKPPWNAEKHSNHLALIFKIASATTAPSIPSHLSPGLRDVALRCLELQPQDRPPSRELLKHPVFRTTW
# Procedure: as §1
# MSPK1 = MSPK1 (Homo sapiens, UniProt O75716); details: 100 μM compound, 50 μM ATP; read-out: Kinase activity, % of activity in the absence of inhibitor
# Chain of MSPK1 (O75716 whole entry): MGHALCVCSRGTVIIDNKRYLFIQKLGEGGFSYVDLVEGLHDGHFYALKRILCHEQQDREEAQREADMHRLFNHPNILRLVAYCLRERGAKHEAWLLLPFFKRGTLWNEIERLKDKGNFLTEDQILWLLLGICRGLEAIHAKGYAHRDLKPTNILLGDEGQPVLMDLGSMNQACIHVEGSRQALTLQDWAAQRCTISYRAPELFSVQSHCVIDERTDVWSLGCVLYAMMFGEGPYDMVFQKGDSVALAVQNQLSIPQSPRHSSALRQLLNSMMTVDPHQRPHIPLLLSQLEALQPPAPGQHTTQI
# Procedure: as §1
# NEK2α = target: T1, NEK2α (Homo sapiens, UniProt P51955); details: 100 μM compound, 50 μM ATP; read-out: Kinase activity, % of activity in the absence of inhibitor
# T1 sequence (P51955 1-445): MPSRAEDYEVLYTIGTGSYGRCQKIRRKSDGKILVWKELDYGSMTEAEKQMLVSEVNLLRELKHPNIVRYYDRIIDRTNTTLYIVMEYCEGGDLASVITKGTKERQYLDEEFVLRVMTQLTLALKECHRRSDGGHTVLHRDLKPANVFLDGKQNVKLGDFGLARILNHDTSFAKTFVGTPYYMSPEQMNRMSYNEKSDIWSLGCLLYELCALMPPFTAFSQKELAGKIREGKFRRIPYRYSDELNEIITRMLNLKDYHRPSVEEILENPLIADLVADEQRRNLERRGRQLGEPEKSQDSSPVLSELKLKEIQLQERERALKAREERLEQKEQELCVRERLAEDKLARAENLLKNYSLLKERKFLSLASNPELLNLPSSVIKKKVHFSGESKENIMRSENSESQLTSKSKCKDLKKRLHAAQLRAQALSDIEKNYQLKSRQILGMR
# Procedure: as §1
# PKCγ = PKCγ (Homo sapiens, UniProt P05129); details: 100 μM compound, 20 μM ATP; read-out: Kinase activity, % of activity in the absence of inhibitor
# Procedure: as §1
# PRAK = target: T2, PRAK (Homo sapiens, UniProt Q8IW41); details: 100 μM compound, 20 μM ATP; read-out: Kinase activity, % of activity in the absence of inhibitor
# T2 sequence (Q8IW41 1-473): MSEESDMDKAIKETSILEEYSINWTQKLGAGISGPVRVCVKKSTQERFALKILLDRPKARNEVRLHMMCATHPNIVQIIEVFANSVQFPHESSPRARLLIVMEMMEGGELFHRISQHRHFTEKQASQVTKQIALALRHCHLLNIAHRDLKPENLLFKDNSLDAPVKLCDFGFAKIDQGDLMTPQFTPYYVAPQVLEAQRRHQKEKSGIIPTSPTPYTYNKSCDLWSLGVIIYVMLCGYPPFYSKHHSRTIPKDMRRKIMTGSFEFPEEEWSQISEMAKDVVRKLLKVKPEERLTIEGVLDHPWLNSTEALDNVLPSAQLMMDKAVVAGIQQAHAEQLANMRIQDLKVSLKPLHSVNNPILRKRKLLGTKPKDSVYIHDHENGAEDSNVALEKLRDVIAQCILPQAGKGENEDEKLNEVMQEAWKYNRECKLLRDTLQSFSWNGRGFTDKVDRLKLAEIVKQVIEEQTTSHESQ
# Procedure: as §1
# TBK1 = target: T3, TBK1 (Homo sapiens, UniProt Q9UHD2); details: 100 μM compound, 50 μM ATP; read-out: Kinase activity, % of activity in the absence of inhibitor
# T3 sequence (Q9UHD2 1-729): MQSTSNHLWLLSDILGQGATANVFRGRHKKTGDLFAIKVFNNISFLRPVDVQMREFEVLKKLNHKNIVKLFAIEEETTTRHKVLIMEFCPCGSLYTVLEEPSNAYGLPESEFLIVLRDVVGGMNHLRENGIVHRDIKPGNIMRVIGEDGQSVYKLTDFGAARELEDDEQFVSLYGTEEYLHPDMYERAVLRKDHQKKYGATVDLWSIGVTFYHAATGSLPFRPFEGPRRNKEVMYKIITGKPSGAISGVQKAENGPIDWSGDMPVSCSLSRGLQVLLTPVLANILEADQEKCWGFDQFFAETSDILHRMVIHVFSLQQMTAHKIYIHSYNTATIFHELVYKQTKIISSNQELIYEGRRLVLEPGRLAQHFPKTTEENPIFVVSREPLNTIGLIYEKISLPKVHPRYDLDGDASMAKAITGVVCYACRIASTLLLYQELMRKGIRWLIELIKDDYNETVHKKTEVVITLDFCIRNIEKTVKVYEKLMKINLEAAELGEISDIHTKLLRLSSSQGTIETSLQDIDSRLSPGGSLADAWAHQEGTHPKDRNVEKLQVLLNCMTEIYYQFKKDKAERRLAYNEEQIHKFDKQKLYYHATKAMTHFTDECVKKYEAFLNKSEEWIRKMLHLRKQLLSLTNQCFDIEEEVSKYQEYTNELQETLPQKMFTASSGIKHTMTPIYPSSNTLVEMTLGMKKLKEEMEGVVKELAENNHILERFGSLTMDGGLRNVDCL
# Procedure: as §1
# Chain of CLK2 (P49760 whole entry, the tested form may be a part): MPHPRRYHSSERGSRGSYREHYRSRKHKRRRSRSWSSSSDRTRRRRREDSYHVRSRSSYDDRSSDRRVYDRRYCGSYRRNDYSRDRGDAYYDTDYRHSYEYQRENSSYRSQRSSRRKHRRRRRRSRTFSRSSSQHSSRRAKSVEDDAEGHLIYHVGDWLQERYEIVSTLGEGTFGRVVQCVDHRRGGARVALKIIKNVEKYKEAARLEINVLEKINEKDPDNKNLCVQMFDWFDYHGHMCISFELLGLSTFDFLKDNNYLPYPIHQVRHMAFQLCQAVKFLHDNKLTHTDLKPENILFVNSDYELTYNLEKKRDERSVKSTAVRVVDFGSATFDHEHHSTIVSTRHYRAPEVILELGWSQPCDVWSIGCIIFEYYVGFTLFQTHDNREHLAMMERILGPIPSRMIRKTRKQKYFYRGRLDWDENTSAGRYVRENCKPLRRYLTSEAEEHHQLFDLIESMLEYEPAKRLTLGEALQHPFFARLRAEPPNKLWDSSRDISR
structure (smiles),measurement,setting,value
Nc1ncnc2c1ncn2C1OC(COP(=O)(O)OP(=O)(O)O)C(O)C1O (stereo not drawn) [ADP],activity at 100 µM,CLK2,33.9%
same,activity at 100 µM,MEKK1,68.1%
same,activity at 100 µM,MSPK1,94.1%
same,activity at 100 µM,NEK2α,42.1%
same,activity at 100 µM,PKCγ,71.9%
same,activity at 100 µM,PRAK,15.2%
same,activity at 100 µM,TBK1,95.1%
"CC(C)(COP(=O)(O)OP(=O)(O)OC[C@H]1O[C@@H](n2cnc3c(N)ncnc32)[C@H](O)[C@@H]1OP(=O)(O)O)[C@@H](O)C(=O)NCCC(=O)NCCS [CoA, Coenzyme A]",activity at 100 µM,CLK2,109%
same,activity at 100 µM,MEKK1,96.3%
same,activity at 100 µM,MSPK1,102%
same,activity at 100 µM,NEK2α,148%
same,activity at 100 µM,PKCγ,70.2%
same,activity at 100 µM,PRAK,99.7%
same,activity at 100 µM,TBK1,106%
"CC(C)(COP(=O)(O)OP(=O)(O)OCC1OC(n2cnc3c(N)ncnc32)C(O)C1O)C(O)C(=O)NCCC(=O)NCCS (stereo not drawn) [dpCoA, dephospho-CoA]",activity at 100 µM,CLK2,80.1%
same,activity at 100 µM,MEKK1,106%
same,activity at 100 µM,MSPK1,102%
same,activity at 100 µM,NEK2α,100%
same,activity at 100 µM,PKCγ,66.4%
same,activity at 100 µM,PRAK,77.7%
same,activity at 100 µM,TBK1,110%
